The source of these data is patent US20220040086A1, “FORMULATION AND AEROSOL CANISTERS, INHALERS, AND THE LIKE CONTAINING THE FORMULATION” (KINDEVA DRUG DELIVERY L.P., priority 2018, published 2022).

Structures are written as SMILES.

Data set [1] in a line: Differential scanning calorimetry thermogram. It counts as physicochemical. The note with it: DSC thermogram. The source says:
Ipratropium, in particular ipratropium bromide, is commercially available as a hydrate, and more particularly as the monohydrate. Dehydration of hydrated ipratropium, in particular ipratropium bromide monohydrate, can be achieved by any suitable method. […] A particularly suitable method is heating the particulate ipratropium, in particular ipratropium bromide monohydrate, in a drying oven for a period of time. The drying oven can be heated to a temperature high enough to remove the water. […] Useful oven temperatures at ambient pressure include at least 100° C., at least 110° C., at least 120° C., at least 125° C., no greater than 240° C., no greater than 230° C., no greater than 225° C., between 100° C. and 240° C., between 110° C. and 230° C., between 120° C. and 220° C., between 125° C. and 215° C., or more particularly about 125° C. The use of pressures less than ambient pressure, such as in a vacuum oven, can be useful in reducing the temperature for dehydration. The time necessary to dehydrate the particulate ipratropium, in particular ipratropium bromide monohydrate, is the amount of time it takes to remove the desired amount of water from the particulate ipratropium. If the amount of water in a sample of particulate ipratropium is known, complete dehydration is complete when the mass of the remaining ipratropium is essentially anhydrous ipratropium. […]
In general terms: Differential scanning calorimetry records heat flow against a reference as temperature is scanned.

The conditions of data set [2]: general statement. The source says: The two formulations were examined by microscope after 2 and 4 weeks storage at ambient temperature and humidity. Each vial was sprayed onto a microscope slide via a standard 3M MK6 actuator.
The conditions of data set [3]: 50 mg in 2 g Malvern dispersant (lecithin in isooctane), sonicated 3 minutes.
For data set [4] the following is noted: 30 mg in 30 mL 2H,3H-decafluoropentane, sonic probe 1 minute.
Experimental: 30 mg of the resulting anhydrous ipratropium bromide was added to a glass sample jar followed by 30 mL of 2H,3H-decafluoropentane.
Data set [5] can be described thus: Rehydration of anhydrous ipratropium bromide (sample weight over time). It counts as physicochemical. As for the experimental part:
The weight of the powder after heating was 9.563 g. The sample was weighed every 10 minutes for 90 minutes and then left over the weekend at 24° C. and 30% humidity.
The sample was then placed in a desiccator for 24 hours and weighed again.

For the molecule `CC(C)[N+]1(C)[C@@H]2CC[C@H]1C[C@@H](OC(=O)C(CO)c1ccccc1)C2.O.[Br-]` (stereo partly shown) [ipratropium bromide monohydrate], in data set [1], the degradation temperature result is “approximately 240 °C” and the “water loss starting temperature” value is “approximately 100 °C”.
In the case of `CC(C)[N+]1(C)[C@@H]2CC[C@H]1CC(OC(=O)C(CO)c1ccccc1)C2.[Br-]` (stereo partly shown) [anhydrous micronized ipratropium bromide], the “stability when formulated in a HFA propellant” value in data set [2] is recorded as “stable”.
On to `CC(C)[N+]1(C)[C@@H]2CC[C@H]1C[C@@H](OC(=O)C(CO)c1ccccc1)C2.O.[Br-]` (stereo partly shown) [micronized ipratropium bromide monohydrate], for which, in data set [3], the “agglomerates under a microscope” value is “essentially free of agglomerates” and the dispersion appearance result is listed as “dispersed satisfactorily”. Also, the “agglomeration observed with magnifying glass (x10)” value in data set [4] is given as “not”.
Consider `CC(C)[N+]1(C)[C@@H]2CC[C@H]1CC(OC(=O)C(CO)c1ccccc1)C2.[Br-]` (stereo partly shown) [anhydrous ipratropium bromide], for which the “agglomerates under a microscope” value in data set [3] was “essentially free of agglomerates”. Besides, the dispersion appearance result in data set [3] is on record as “dispersed satisfactorily”. Further, the “agglomeration observed with magnifying glass (x10)” value in data set [4] is recorded as “significant agglomeration”. Further, the Sample weight in data set [5] (10 mins) came to 9.597 g; in data set [5] (20 mins), 9.600 g; in data set [5] (30 mins) it was 9.601 g; in data set [5] (40 mins) it was 9.602 g; in data set [5] (50 mins) it was 9.603 g; in data set [5] (60 mins), 9.603 g. Moreover, the Sample weight turned out to be 9.602 g in data set [5] (70 mins); 9.602 g in data set [5] (80 mins); 9.603 g in data set [5] (90 mins); 9.606 g in data set [5] (2.5 days at 24° C. and 30% humidity); 9.568 g in data set [5] (after a further 24 hours in a desiccator). In addition, in data set [5] (after 2.5 days at 24° C. and 30% humidity (9.606 g)), the “weight decrease relative to unmicronized ipratropium bromide monohydrate starting material” value is recorded as 3.94%. Further, in data set [5] (after a further 24 hours in a desiccator (9.568 g)), the “weight loss relative to unmicronized ipratropium bromide monohydrate starting material” value was found to be 4.14%.
